Measured values published in patent publication US5236927A, “Anti-cancer quinazoline derivatives” (National Research Development Corporation, priority 1985, dated 1993).
Like-named read-outs stand apart in the source and are kept apart here.

Legend:
[1] = test system: L1210/C15 cells; experiment: L1210/C15 cell culture growth inhibition (overproduces TS 45-fold); type: cell-based
Method: Cell counts after 48 hours of incubation were obtained by Coulter counting.

[2] = test system: L1210 cells; experiment: L1210 cell culture growth inhibition; type: cell-based; conditions: Mus musculus, 48 hours, read-out: L1210 ID50
Method: (§1) Cells in the log phase of growth were diluted to about 5×10^4 /ml and duplicate 5ml aliquots were added to 50 ml tissue culture flasks containing the appropriate additions (diluted in RPMI and sterilised by Millipore filtration). Cell counts after 48 hours of incubation were obtained by Coulter counting.

[3] = test system: de novo thymidylate synthesis in L1210 cells; experiment: Incorporation of 3H dUrd into acid-precipitable material in L1210 cells; type: cell-based
Method: L1210 cells were used at a concentration of 10^5 /ml. Incubation at 37° C. was in complete RPMI tissue culture medium plus or minus drugs for the lengths of time indicated on the graphs. After this time ^3 H dUrd was added at a concentration of 2 uCi/ml (about 0.2 uM). Three 1 ml aliquots were removed after 20 minutes, placed on ice and mixed with 1 ml of ice-cold phosphate buffered saline (PBS). Precipitation onto glass-fibre discs was performed by trichloroacetic acid washing followed by PBS. […] This is an indirect measurement of de novo thymidylate synthesis in whole cells. […] These concentrations are 10 times the ID50 values.

[4] = mouse; cited from earlier work
[5] = test system: L1210 tumour; conditions: grown in vivo; cited from earlier work
[6] = test system: alanine transaminase; experiment: Comparative hepatotoxicity in the mouse (plasma alanine transaminase); type: in vivo
Method: […]. Plasma was prepared and the livers and kidneys excised and weighed.
Samples of plasma were also analysed for the enzyme alanine transaminase, an indicator of hepatotoxicity. […]

[7] = Urinary and faecal elimination in the mouse; type: in vivo; conditions: ip, 100 mg/kg i.p., 0-48 h
[8] = test system: L1210 cells; conditions: cited from earlier work
[9] = test system: L1210 cells; experiment: Reversal of L1210 toxicity by co-incubation with thymidine; type: cell-based; conditions: compound 50 uM + 10 uM thymidine
Method: as §1

[10] = Comparative pharmacokinetics in the mouse (plasma, liver, kidney levels); type: in vivo; conditions: for concentration at 3 h / concentration at 6 h: mouse, plasma, ip, read-out: Plasma quinazoline conc.
Method: 3 Hours and 6 hours after administration groups of three mice at each dose level were sacrificed by exsanguination via cardiac puncture. Plasma was prepared and the livers and kidneys excised and weighed.

[11] = cited from earlier work
[12] = rat, in vivo; for concentration: iv, 100 mg/kg
Method: (§3) During and after the infusion blood and bile samples were collected. Four hours after the experiment the rats were sacrificed and the urine collected from the bladder and the liver and kidneys removed.
(§4) Samples of plasma were also analysed for alanine transaminase.

[13] = test system: L1210 cells; conditions: grown in vitro; cited from earlier work
[14] = in vivo; conditions: rat, iv, 100 mg/kg, Plasma levels
Method: as §3, §4

[15] = man, cited from earlier work
[16] = test system: L1210 tumour; experiment: Treatment of L1210 tumour-bearing mice; type: in vivo, mouse
Method: (§2) The L1210 tumour is carried routinely in DBA2 mice at the Institute of Cancer Research (L1210/CBRI). For experiments 5×10^4 cells were implanted i.p. into male C57Bl×DBA2 F1 hybrid mice 3 days prior to treatment. […] The control group consisted of 9 mice and treated groups 6 or 7 mice.

[17] = Toxicity and weight loss in treated L1210 tumour-bearing mice; type: in vivo, mouse; conditions: 200 mg/kg, data not included
Method: as §2

[18] = target: T1, Thymidylate synthetase (TS) (Mus musculus, UniProt P07607); experiment: Thymidylate synthetase (TS) inhibition, 3H release assay; type: biochemical; conditions: for TS IRP (inverse relative potency, I50 test compound/I50 CB3717): relative to CB3717
T1 construct: A 50,000 g supernatant was prepared from a TS over-producing (45-fold) L1210 cell line; endogenous in cells; host or cells: L1210 (TS over-producing subline, 45-fold), 50,000 g supernatant
Method: Each compound was dissolved in 0.15M NaHCO3. Thymidylate synthetase was assayed by a ^3 H release method. A 50,000 g supernatant was prepared from a TS over-producing (45-fold) L1210 cell line that was developed in this Institute. The preparation buffer was 0.05M potassium phosphate/0.01M 2-mercaptoethanol, pH 7.4. […] The reaction mixture contained a total of 25 umoles of phosphate. Incubation time was for 1 hour at 37° C.
The results are tabulated below (Table 5). The I50 was defined as the inhibitor concentration necessary to reduce the activity of TS by 50%.

[19] = 100 mg/kg i.p., 3 h post-treatment
[20] = 100 mg/kg i.p., 6 h post-treatment
[21] = 300 mg/kg i.p., 3 h post-treatment
[22] = 300 mg/kg i.p., 6 h post-treatment

T1 sequence (P07607 whole entry): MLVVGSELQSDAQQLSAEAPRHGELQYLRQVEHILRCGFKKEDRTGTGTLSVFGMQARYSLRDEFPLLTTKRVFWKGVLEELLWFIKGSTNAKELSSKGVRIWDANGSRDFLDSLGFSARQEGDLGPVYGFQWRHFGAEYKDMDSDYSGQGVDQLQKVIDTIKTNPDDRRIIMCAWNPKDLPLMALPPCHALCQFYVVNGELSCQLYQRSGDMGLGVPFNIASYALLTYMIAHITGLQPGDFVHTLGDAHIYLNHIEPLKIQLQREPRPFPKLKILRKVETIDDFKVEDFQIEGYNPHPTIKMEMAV

In the case of `Cc1c(CNc2ccc(C(=O)N[C@@H](CCC(=O)O)C(=O)O)cc2)ccc2nc(N)nc(N)c12` [CB3703, 5CH35,8-dideazaaminopterin], the “resistance of L1210/C15 cells” value [1] is reported as “not resistant”.
In the case of `Nc1nc2ccc(CNc3ccc(C(=O)N[C@@H](CCC(=O)O)C(=O)O)cc3)cc2c(=O)[nH]1` [CB3705, 5,8-dideazafolic acid], the IC50 [2] is reported as 5000 nM, the “3H dUrd incorporation” value ([3]; 10 times the ID50 concentration) is reported as “did not produce rapid suppression” and the “3H dUrd incorporation” value ([3]; over 2 hours at the ID50 concentration (5 uM)) is reported as “did not significantly effect”.
In the case of `C#CCN(Cc1ccc2nc(N)nc(O)c2c1)c1ccc(C(=O)N[C@@H](CCC(=O)O)C(=O)O)cc1` [CB3717, N-(4-(N-((2-amino-4-hydroxy-6-quinazolyl)methyl)prop-2-ynylamino)benzoyl)-L-glutamic acid, reference compound], the “kidney toxicity: plasma urea” value [4] is given as “rise in plasma urea”, the “liver toxicity: alanine transaminase” value [4] is given as “transient rise in alanine transaminase” and the “activity against L1210 cells in vivo” value [5] is given as “active against L1210 cells”. For the same compound, the “L1210/C15 ID50” value ([1]; 48 hours, at 100 uM) was “no inhibition”, the “Plasma alanine transaminase level” value [6, 19] was 225 ± 146 U/L and the “Plasma alanine transaminase level” value [6, 20] was 273 ± 106 U/L. The “Plasma alanine transaminase level” value [6, 21] was 86 ± 61 U/L, the “Plasma alanine transaminase level” value [6, 22] was 973 ± 178 U/L and the “Levels of alanine transaminase (in words)” value ([6]; mice i.p., normal range 5-25U/l) was “markedly elevated”. For the same compound, the dose excreted at 48 h ([7]; faeces, read-out: Faecal excretion of the parent compound) was 26 ± 7%, the dose excreted at 48 h ([7]; urine, read-out: Urinary excretion of the parent compound) was 15 ± 3% and the “effect of thymidine on cytotoxic effect” value [8] was “prevented in both cases by thymidine”. The “Cell count at 48 hours as % control” value [9] was 103 % control, the Kidney quinazoline level [10, 19] was 13 ± 2 % dose administered and the Liver quinazoline level [10, 19] was 32 ± 4 % dose administered. For the same compound, the Kidney quinazoline level [10, 20] was 20 ± 8 % dose administered, the Liver quinazoline level [10, 20] was 11 ± 2 % dose administered and the Kidney quinazoline level [10, 21] was 6 ± 1 % dose administered. For the same compound, the Liver quinazoline level [10, 21] was 22 ± 8 % dose administered, the Kidney quinazoline level [10, 22] was 16 ± 1 % dose administered and the Liver quinazoline level [10, 22] was 14 ± 6 % dose administered. For the same compound, the “detection in plasma, liver and kidneys” value ([10]; mice, 3 and 6 hours after i.p. dose, for CB3804 except plasma 3 h at 500 mg/kg) was “readily detected”, the concentration at 3 h [10, 19] was 134 ± 34 µM and the concentration at 6 h [10, 20] was 59 ± 38 µM. For the same compound, the concentration at 3 h [10, 21] was 214 ± 55 µM, the concentration at 6 h [10, 22] was 362 ± 32 µM and the “solubility at acid pH” value [11] was “poor solubility”. The “clearance from the plasma (in words)” value [12] was “cleared less rapidly”, the concentration ([12]; 0.5 h) was 447 µM and the concentration ([12]; 1 h) was 878 µM. The “activity against L1210 cells in vitro” value [13] was “active against L1210 cells”, the concentration at 0.5 h [14] was 412 µM and the concentration at 1 h [14] was 908 µM. For the same compound, the hepatic toxicity [15] was “apparently non-dose-related (although not life-threatening) hepatic toxicity”, the “liver toxicity: alanine transaminase” value [15] was “transient rise in alanine transaminase” and the “responses noted during Phase I/II clinical studies” value ([15]; particularly breast and ovary) was “Several minor and partial responses”. The “"cures" (survived >100 days)” value ([16]; 50 mg/kg i.p. daily ×5) was “about 70%”, the “"cures"” value ([16]; 100 mg/kg (the optimal dose), many previous experiments) was 80-100% and the weight loss [17] was “about 10%”. For the same compound, the mortality ([17]; mouse, in vivo, ip, read-out: death (of the animals)) was about 50% and the activity at 50 µM ([3]; Mus musculus, L1210, 10 min, 50 uM, by about 10 minutes) was under 20%.
With `O=C(O)CC[C@H](NC(=O)c1ccc(NCc2ccc3nc[nH]c(=O)c3c2)cc1)C(=O)O` [CB3816, N-(4-(((3,4-dihydro-4-oxo-6-quinazolinyl)methyl)amino)benzoyl)-L-glutamic acid] the “TS IRP (inverse relative potency, I50 test compound/I50 CB3717)” value [18] was 1136 and the IC50 [2] was 700 nM.
For `CCN(Cc1ccc2nc[nH]c(=O)c2c1)c1ccc(C(=O)N[C@@H](CCC(=O)O)C(=O)O)cc1` [CB3822, N-(4-(N-((3,4-dihydro-4-oxo-6-quinazolinyl)methyl)ethylamino)benzoyl)-L-glutamic acid], the “TS IRP (inverse relative potency, I50 test compound/I50 CB3717)” value [18] was 26 and the IC50 [2] was 2600 nM.
With `CN(Cc1ccc2nc[nH]c(=O)c2c1)c1ccc(C(=O)N[C@@H](CCC(=O)O)C(=O)O)cc1` [CB3824, N-(4-(N-((3,4-dihydro-4-oxo-6-quinazolinyl)methyl)methylamino)benzoyl)-L-glutamic acid] the “TS IRP (inverse relative potency, I50 test compound/I50 CB3717)” value [18] was 53 and the IC50 [2] was 1100 nM.
In the case of `C=CCN(Cc1ccc2nc[nH]c(=O)c2c1)c1ccc(C(=O)N[C@@H](CCC(=O)O)C(=O)O)cc1` [CB3826, N-(4-(N-((3,4-dihydro-4-oxo-6-quinazolinyl)methyl)prop-2-enylamino)benzoyl)-L-glutamic acid], the “TS IRP (inverse relative potency, I50 test compound/I50 CB3717)” value [18] is reported as 56 and the IC50 [2] is reported as 1700 nM.
In the case of `C#CCN(Cc1ccc2nc[nH]c(=O)c2c1)c1ccc(C(=O)N[C@@H](CCC(=O)O)C(=O)O)s1` [CB3866, N-(5-(N-((3,4-dihydro-4-oxo-6-quinazolinyl)methyl)prop-2-ynylamino)thien-2-oyl)-L-glutamic acid], the IC50 ([18]; TS from TS over-producing L1210 line, 200 uM (±)-L-5,10-CH2FH4, 1 hour at 37° C, read-out: TS I50) is reported as 1700 nM and the “TS IRP (inverse relative potency, I50 test compound/I50 CB3717)” value [18] is reported as 85.
With `CN(Cc1cnc2nc(N)nc(N)c2n1)c1ccc(C(=O)N[C@@H](CCC(=O)O)C(=O)O)cc1` [methotrexate] the “resistance of L1210/C15 cells” value [1] was “not resistant”.
